Values quoted from earlier work, collected in US6514527B1, “Compositions comprising a mixture of bioflavonols” (Merck Patentgesellschaft, priority 1998, dated 2003).

Conditions: orally administered

| time to reach peak | Compound |
| --- | --- |
| about 0.70 h | O=c1c(O[C@@H]2O[C@H](CO)[C@@H](O)[C@H](O)[C@H]2O)c(-c2ccc(O)c(O)c2)oc2cc(O)cc(O)c12 [isoquercetin] |
| about 3 h | O=c1c(O)c(-c2ccc(O)c(O)c2)oc2cc(O)cc(O)c12 [quercetin] |
